Target: MAPK14 (UniProt Q16539)
Test: Inhibition of MAPK14 Kinase Activity

Sequence of MAPK14 (Q16539 whole entry, looked up): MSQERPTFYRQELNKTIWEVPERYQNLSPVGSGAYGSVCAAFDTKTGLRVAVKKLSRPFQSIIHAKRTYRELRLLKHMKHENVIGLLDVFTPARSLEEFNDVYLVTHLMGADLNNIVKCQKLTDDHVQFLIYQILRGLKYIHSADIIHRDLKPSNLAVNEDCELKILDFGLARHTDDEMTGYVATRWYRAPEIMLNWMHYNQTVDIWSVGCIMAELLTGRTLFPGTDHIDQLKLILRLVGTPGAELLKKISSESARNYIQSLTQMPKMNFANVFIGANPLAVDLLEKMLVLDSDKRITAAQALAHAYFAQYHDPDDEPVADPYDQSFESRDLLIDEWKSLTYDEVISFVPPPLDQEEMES

Row | Compound | IC50 [µM]
1 | Cc1ccc(C(=O)NC2CC2)cc1-c1ccc2c(cnn2S(=O)(=O)c2cccc(F)c2)c1 | < 10
2 | COC(=O)c1ccc(S(=O)(=O)n2ncc3cc(-c4cc(C(=O)NC5CC5)ccc4C)ccc32)o1 | < 10
3 | Cc1ccc(C(=O)NC2CC2)cc1-c1ccc2c(cnn2S(=O)(=O)c2ccc(F)cc2)c1 | < 10
4 | Cc1c(F)cc(C(=O)NC2CC2)cc1-c1ccc2c(cnn2CC(=O)NCc2ccccc2)c1 | < 10
5 | Cc1ccc(C(=O)NC2CC2)cc1-c1ccc2c(cnn2S(=O)(=O)c2ccccc2C#N)c1 | < 10
6 | Cc1c(F)cc(C(=O)NC2CC2)cc1-c1ccc2c(cnn2CC(=O)NCC(C)(C)C)c1 | < 10
7 | CCCCS(=O)(=O)n1ncc2cc(-c3cc(C(=O)NC4CC4)cc(F)c3C)ccc21 | < 10
8 | Cc1c(F)cc(C(=O)NC2CC2)cc1-c1ccc2c(cnn2S(=O)(=O)c2ccc(C#N)cc2)c1 | < 10
9 | CCCNC(=O)Cn1ncc2cc(-c3cc(C(=O)NC4CC4)cc(F)c3C)ccc21 | < 10
10 | Cc1c(F)cc(C(=O)NC2CC2)cc1-c1ccc2c(cnn2CC(=O)NCC2CC2)c1 | < 10
11 | Cc1ccc(C(=O)NC2CC2)cc1-c1ccc2c(cnn2S(=O)(=O)c2cccc3nonc23)c1 | < 10
12 | Cc1c(F)cc(C(=O)NC2CC2)cc1-c1ccc2c(cnn2S(=O)(=O)c2ccc(C(C)C)cc2)c1 | < 10
13 | COc1ccc(S(=O)(=O)n2ncc3cc(-c4cc(C(=O)NC5CC5)cc(F)c4C)ccc32)cc1 | < 10
14 | COc1cccc(S(=O)(=O)n2ncc3cc(-c4cc(C(=O)NC5CC5)ccc4C)ccc32)c1 | < 10
15 | Cc1ccc(C(=O)NC2CC2)cc1-c1ccc2c(cnn2S(=O)(=O)c2ccc(-c3ccon3)s2)c1 | < 10
16 | Cc1c(F)cc(C(=O)NC2CC2)cc1-c1ccc2c(cnn2C(=O)OC(C)(C)C)c1 | < 10
17 | Cc1cccc(S(=O)(=O)n2ncc3cc(-c4cc(C(=O)NC5CC5)cc(F)c4C)ccc32)c1 | < 10
18 | Cc1c(F)cc(C(=O)NC2CC2)cc1-c1ccc2c(S(C)(=O)=O)n[nH]c2c1 | < 10
19 | COc1ccc(CNC(=O)Cn2ncc3cc(-c4cc(C(=O)NC5CC5)ccc4C)ccc32)cc1 | < 10

Next, values leading:

Row | IC50 [µM] | Compound
20 | < 10 | COc1cccc(CNC(=O)Cc2noc3cc(-c4cc(C(=O)NC5CC5)ccc4C)ccc23)c1
21 | < 10 | Cc1ccc(C(=O)NC2CC2)cc1-c1ccc2c(CC(=O)Nc3nccs3)noc2c1
22 | < 10 | Cc1ccc(C(=O)NC2CC2)cc1-c1ccc2c(cnn2CC(=O)NCC(C)(C)C)c1
23 | < 10 | Cc1ccc(C(=O)NC2CC2)cc1-c1ccc2c(S(=O)(=O)c3ccc(F)cc3)n[nH]c2c1
24 | < 10 | Cc1ccc(C(=O)NC2CC2)cc1-c1ccc2c(CN3CCCC3)noc2c1
25 | < 10 | Cc1ccc(C(=O)NC2CC2)cc1-c1ccc2c(cnn2CC2CC2)c1
26 | < 10 | Cc1ccc(C(=O)NC2CC2)cc1-c1ccc2c(CC(=O)N3CCCCC3)noc2c1
27 | < 10 | Cc1ccc(C(=O)NC2CC2)cc1-c1ccc2c(C)noc2c1
28 | < 10 | Cc1ccc(C(=O)NCC2CC2)cc1-c1ccc2c(C3CCNCC3)noc2c1
29 | < 10 | Cc1ccc(C(=O)NC2CC2)cc1-c1ccc2c(cnn2C2CCNCC2)c1
30 | < 10 | Cc1ccc(C(=O)NC2CC2)cc1-c1ccc2c(CNC(CO)CO)noc2c1
31 | < 10 | CNC(=O)Cc1noc2cc(-c3cc(C(=O)NC4CC4)ccc3C)ccc12
32 | < 10 | Cc1ccc(C(=O)NC2CC2)cc1-c1ccc2c(cnn2S(=O)(=O)C2CC2)c1
33 | < 10 | CCCNC(=O)c1noc2cc(-c3cc(C(=O)NC4CC4)cc(F)c3C)ccc12
34 | < 10 | Cc1ccc(C(=O)NC2CC2)cc1-c1ccc2c(C3CCNCC3)noc2c1
35 | < 10 | Cc1ccc(C(=O)NC2CC2)cc1-c1ccc2c(cnn2S(=O)(=O)Cc2ccccc2)c1
36 | < 10 | CCS(=O)(=O)n1ncc2cc(-c3cc(C(=O)NC4CC4)ccc3C)ccc21
37 | < 10 | Cc1c(F)cc(C(=O)NC2CC2)cc1-c1ccc2c(NC3CC3)noc2c1
38 | < 10 | Cc1ccc(C(=O)NC2CC2)cc1-c1ccc2c(cnn2S(C)(=O)=O)c1
39 | < 10 | Cc1ccc(C(=O)NC2CC2)cc1-c1ccc2c(cnn2C2CCN(C(=O)OC(C)(C)C)CC2)c1
40 | < 10 | Cc1ccc(C(=O)Nc2nncs2)cc1-c1ccc2c(C3CCNCC3)noc2c1
41 | < 10 | Cc1ccc(C(=O)NC2CC2)cc1-c1ccc2c(cnn2CC(=O)NCC2CC2)c1
42 | < 10 | Cc1ccc(C(=O)NC2CC2)cc1-c1ccc2c(CC(=O)N3CCNCC3)noc2c1
43 | < 10 | Cc1c(F)cc(C(=O)NC2CC2)cc1-c1ccc2[nH]ncc2c1
44 | < 10 | Cc1ccc(C(=O)NC2CC2)cc1-c1ccc2c(CN3CCN(C)CC3)noc2c1

Source: the Kinase Knowledgebase extract (Sharma et al. 2016)
